Experiments:
calcium level in serum [1] = assay: Prevention of hypercalcemia in rats administered with 1-α-(OH)-D3 (Example 4); assay type: in vivo, male Wistar rats; conditions: 100 µg/kg oral together with 1-α-(OH)-D3 10 µg/kg i.p.
Excerpt: In the present example, it is shown that 24R,25-(OH)2 -D3 has a function of preventing the occurrence of hypercalcemia on rats administered with 1-α-hydroxycholecalciferol (hereinafter referred to as 1-α-(OH)-D3).
Six subgroups of male Wistar rats of 130±30 g of body weight were subjected to the test while dividing the rats into 3 groups, each group consisting of 2 subgroups and each subgroup consisting of 5 animals. To the rats of the first group, after fasting for a night, an ethanolic solution of 1-α-(OH)-D3 was intraperitoneally administered at a dose rate of 10 micrograms of 1-α-(OH)-D3 /kg body weight. To the rats of the second group, a solution of 24R,25-(OH)2 -D3 in the triglyceride ester used in Example 1 was orally administered at a dose rate of 100 micrograms/kg body weight simultaneously with the same administration of 1-α-(OH)-D3 as in the rats of the first group.
The third group of the rats was used for control only with the oral administration of the triglyceride ester used in Example 1.

[2] = Acute oral mammalian toxicity; parameters: species or system male mouse of ICR-strain; conditions: mouse, in vivo, read-out: LD50 (per os)
Protocol: 0.3 ml of ethanolic solution containing 150 mg of 24R,25-(OH)2 -D3 was suspended in 15 ml of Panacete® 810 (triglyceride ester of C8 and C10 -fatty acid, made by Nippon Oil & Fats Co., Ltd.) to obtain a suspension containing 2% by weight of ethanol. The thus prepared composition was orally administered to a group of male mouse of ICR-strain consisting of 10 animals at a dose rate of 150 mg of 24R,25-(OH)2 -D3 per kg.

calcium level in serum [3] = assay: Serum calcium in hemodialysis patient hypercalcemic due to active Vitamin D3 (Example 7); assay type: in vivo, human; conditions: person six; baseline
Protocol: person six who was subjected to hemodialysis on account of renal failure and became hypercalcemia due to the four month administration of active Vitamin D3 at a daily dose of 0.5 to 1.0 microgram was treated by the oral administration of the capsule composition similar to that prepared in Example 6 for three continuous days at a daily dose of 10 micrograms of 24R,25-(OH)2 -D3.

calcium level in serum [4] = assay: Serum calcium in patient with hyperparathyroidism accompanied by hypercalcemia (Example 6); assay type: in vivo, human; conditions: person seventeen, 10 µg/day oral
Excerpt: The thus prepared capsule composition was tentatively applied to the following two cases of human hyperparathyroidism accompanied by hypercalcemia:
To patient seventeen suffering from hyperparathyroidism accompanied by hypercalcemia, one of the capsule composition prepared as above containing 1 microgram of the active ingredient in one capsule was orally administered at a daily dose of 10 micrograms of 24R,25-(OH)2 -D3 for continuous 4 days.

[5] = test system: LICR-LON-HMy 2 cells derived from human myeloma; assay: Inhibition of proliferation of LICR-LON-HMy 2 cells (Example 25); assay type: cell-based; conditions: 3 days
Protocol: In a similar manner to Example 24, in vitro proliferated strain of LICR-LON-HMy 2 cells derived from human myeloma were cultured in each one of the same culture mediums as those used in Example 24. After culturing for 3 days, the cultured medium was stained with tripan blue and observed under a microscope to count the number of living cells, the results being shown in Table 19.
In Table 19, the inhibition rate is based on the number of cells in the culture medium added specifically with dimethylsulfoxide as in Example 24.

thymic cells = assay: Pattern of the size of thymic cells by FACS (Example 12); assay type: in vivo, rats; conditions: 100 µg/kg/day oral 12 days with puromycin aminonucleoside
Protocol: After feeding the rats (the same number and the same grouping) of the same strain and treating them in the same manner as in Example 11, their thymus was resected, and an analysis of the pattern of the size of the thymic cells was carried out while using Fluorescence Activated Cell Sorter (FACS II, made by Becton-Dickinson Co.) as follows:
After loosing the resected thymus in phosphate buffer solution sufficiently with a pincette, pipetting well and passing the mixture through a standard #200 Tyler stainless steel mesh, the filtrate was treated with an aqueous 0.83% by weight ammonium chloride buffer solution containing tris-hydroxyaminomethane to carry out hemolysis of the erythrocytes intermingled therein followed by three times of washing with the phosphate buffer solution. After adjusting the concentration of the thus obtained thymic cell to 5×10^6 cells/ml with the addition of the phosphate buffer solution, the abovementioned analysis was carried out. The ratio of the number of living thymic cells to the total number of the thus obtained thymic cells was confirmed to be higher than 95% after staining with trypan blue and counting under microscope.

gastric ulcer = assay: Prevention of gastric ulcer due to pyloric ligation (Example 9); assay type: in vivo, male Wistar rats; conditions: 200 µg/kg i.p. once after pyloric ligation, 15 h
Protocol: Twenty male Wistar rats of average body weight of 250 g were divided equally into two groups, and used in the following test:
After 36 hour fasting, all the rats were subjected to pyloric ligation, and the rats of the first group were administered with 2 ml/kg of Panacete®810 (triglyceride ester of C8 and C10 -fatty acid, made by Nippon Oil & Fats Co., Ltd.) containing 0.2% by weight of ethanol intraperitoneally once just after ligation. The rats of the second group were administered with 24R,25-(OH)2 -D3 dissolved in Panacete®810 containing 0.2% by weight of ethanol intraperitoneally at a dose rate of 200 micrograms/kg body weight once just after ligation. After 15 hours of administration, all the rats were subjected to gastrectomy, and the presence or absence of the gastroparietal ulcer was examined on all the resected stomach.
As a result, the occurrence of gastric ulcer was found on 9 rats of 10 rats of the first group, and on 2 rats of 10 rats of the second group.
In a similar test, 24S,25-(OH)2 -D3 was used instead of 24R,25-(OH)2 -D3 to examine its effect in preventing the occurrence of gastric ulcer due to pyloric ligation. As a result, the occurrence of gastric ulcer was recognized on 3 rats of 10 rats of the group similarly treated to those of the second group.

With `C=C1CC[C@H](O)C/C1=C/C=C1\CCC[C@]2(C)[C@@H]([C@H](C)CC[C@@H](O)C(C)(C)O)CC[C@@H]12` [24R,25-(OH)2 -D3] the “Calcium level in serum” value (calcium level in serum [1]; after 10 hours) was 11.5 ± 0.5 mg/dL, the “Calcium level in serum” value (calcium level in serum [1]; after 18 hours) was 10.6 ± 0.4 mg/dL and the LD50 at 336 h [2] was > 150 mg/kg. The “calcium level in serum before the administration” value (calcium level in serum [3]) was 12.8 mg/dL, the “calcium level in serum after administration for 4 days” value (calcium level in serum [4]) was 10.8 mg/dL and the “Number of myeloma cells after culture” value ([5]; 1 microgram/ml) was 8.0 ×10^5 cells/ml. The “Number of myeloma cells after culture” value ([5]; 10 micrograms/ml) was 0.4 ×10^5 cells/ml, the inhibition at 1 µg/mL ([5]; Homo sapiens, 72 h, 1 microgram/ml, vs dimethylsulfoxide, read-out: Inhibition Rate of the myeloma cells) was 12% and the inhibition at 10 µg/mL ([5]; Homo sapiens, 72 h, 10 micrograms/ml, vs dimethylsulfoxide, read-out: Inhibition Rate of the myeloma cells) was 96%. The “number ratio of cells a little larger than normal cell to total thymic cells” value (thymic cells) was “the same as that of the control group” and the “occurrence of gastric ulcer” value (gastric ulcer) was 2 rats of 10 rats.

From US4442093A, “Method for administering 24,25-dihydroxycholecalciferol to persons suffering from hypercalcemia” (Kureha Kagaku Kogyo Kabushiki Kaisha, priority 1981, dated 1984)
